DBAASP
Converted amounts (≈) assume the structure as drawn. Blank lines part the entries; values can stand above or below the compound they belong to.

Experiments:
Assay in all cases: ≥ marks a high value that may be exact or a test limit, other limits are often not marked, values filed in µg/mL are converted to µM
[1] = test system: Escherichia coli ATCC 25922
[2] = test system: Staphylococcus aureus ATCC 25923
[3] = test system: Pseudomonas aeruginosa ATCC 27853
[4] = test system: Bacillus subtilis ATCC 6051
[5] = test system: Mycobacterium tuberculosis H37Rv
[6] = test system: Micrococcus luteus ATCC 4698
[7] = test system: Candida albicans NCYC 1467
[8] = test system: Staphylococcus aureus NCTC 10788
[9] = test system: Escherichia coli NCTC 10418
[10] = test system: Candida albicans NCPF 1467
[11] = test system: Staphylococcus aureus ATCC 6538
[12] = test system: Escherichia coli DH5alpha
[13] = test system: Staphylococcus epidermidis ATCC 12228
[14] = test system: Streptococcus mutans
[15] = test system: Streptococcus agalactiae
[16] = test system: Enterococcus faecalis ATCC 29212
[17] = test system: Klebsiella pneumoniae ATCC 10031
[18] = test system: Salmonella enterica subsp. enterica serovar Typhimurium ATCC 14028

MIC [1]: 9.56 µM (≈ 16 µg/mL)
MIC [2]: 76.5 µM (≈ 128 µg/mL)
MIC [3]: 4.78 µM (≈ 8 µg/mL)
MIC [4]: 9.56 µM (≈ 16 µg/mL)
Structure (SMILES): CC[C@H](C)[C@H](NC(=O)[C@H](Cc1c[nH]c2ccccc12)NC(=O)[C@H](Cc1ccccc1)NC(=O)[C@H](CC(C)C)NC(=O)CN)C(=O)N[C@H](C(=O)N[C@@H](CCCCN)C(=O)N[C@@H](CCCCN)C(=O)N[C@H](C(=O)N[C@H](C(=O)NCC(=O)N[C@@H](CCCCN)C(=O)N[C@@H](CC(C)C)C(=O)N[C@@H](CCCN=C(N)N)C(=O)O)[C@@H](C)CC)[C@@H](C)O)[C@@H](C)CC [GLFWIIKKTIGKLR]

MIC [5]: 12.1 µM (≈ 20 µg/mL)
Structure (SMILES): CC[C@H](C)[C@H](NC(=O)[C@H](CCCCN)NC(=O)[C@@H](NC(=O)[C@H](Cc1ccccc1)NC(=O)[C@@H](NC(=O)[C@@H]1CCCN1C(=O)[C@H](CS)NC(=O)[C@H](C)N)[C@@H](C)CC)[C@@H](C)O)C(=O)N[C@@H](CCC(N)=O)C(=O)NCC(=O)N[C@H](C(=O)N[C@@H](CS)C(=O)N[C@@H](Cc1ccc(O)cc1)C(=O)N[C@@H](CCCN=C(N)N)C(=O)NCC(=O)O)[C@@H](C)O [ACPIFTKIQGTCYRG]

MIC [6]: 0.8 µM (≈ 0.873 µg/mL)
Structure (SMILES): NCCCC[C@@H]1NC(=O)[C@H](Cc2c[nH]c3ccccc23)NC(=O)CNC(=O)CNC(=O)[C@@H](N)CSSC[C@@H](C(=O)O)NC(=O)[C@H](CCCN=C(N)N)NC(=O)[C@H](CCCCN)NC(=O)[C@H](CCCN=C(N)N)NC1=O [CGGWKRKRC]

MIC [5]: ≥ 89.3 µM
Structure (SMILES): CC[C@H](C)[C@H](NC(=O)[C@H](CC(C)C)NC(=O)[C@@H](N)CCCN=C(N)N)C(=O)N[C@@H](CCCN=C(N)N)C(=O)N[C@H](C(=O)N[C@@H](CCC(=O)O)C(=O)N[C@@H](CCCN=C(N)N)C(=O)N[C@@H](CC(=O)O)C(=O)N[C@@H](CO)C(=O)N[C@H](C(=O)N[C@@H](CCC(=O)O)C(=O)N[C@@H](C)C(=O)N[C@@H](CC(C)C)C(=O)N[C@@H](CCSC)C(=O)N[C@@H](CCCN=C(N)N)C(=O)N1CCC[C@H]1C(=O)N[C@H](C(=O)NCC(=O)N[C@@H](CCCCN)C(=O)O)[C@@H](C)CC)C(C)C)C(C)C [RLIRVERDSVEALMRPIGK]

MIC [7]: ≥ 64 µM
MIC [8]: ≥ 256 µM
MIC [9]: ≥ 32 µM
Structure (SMILES): CC[C@H](C)[C@H](NC(=O)[C@H](CC(=O)O)NC(=O)[C@H](CCCCN)NC(=O)[C@H](Cc1c[nH]c2ccccc12)NC(=O)[C@H](CC(C)C)NC(=O)[C@H](C)N)C(=O)N[C@@H](CC(C)C)C(=O)N[C@@H](CCCCN)C(=O)N[C@@H](CC(N)=O)C(=O)N[C@@H](C)C(=O)NCC(=O)N[C@@H](CCCCN)C(=O)N[C@@H](C)C(=O)N[C@@H](C)C(=O)N[C@@H](CC(C)C)C(=O)N[C@@H](CC(N)=O)C(=O)N[C@@H](CCC(=O)O)C(=O)N[C@H](C(=O)N[C@@H](CC(N)=O)C(=O)N[C@@H](CCC(N)=O)C(=O)N[C@H](C(=O)N[C@H](C(=O)N[C@@H](CCC(N)=O)C(N)=O)C(C)C)[C@@H](C)CC)[C@@H](C)CC [ALWKDILKNAGKAALNEINQIVQ]

MIC [10]: 15.9 µM (≈ 32 µg/mL)
MIC [8]: 7.93 µM (≈ 16 µg/mL)
MIC [9]: ≥ 254 µM
Structure (SMILES): CC[C@H](C)[C@H](NC(=O)[C@H](C)NC(=O)[C@H](CO)NC(=O)[C@@H](NC(=O)[C@H](CC(C)C)NC(=O)CNC(=O)[C@H](C)NC(=O)[C@@H](NC(=O)[C@@H](NC(=O)[C@H](CO)NC(=O)[C@@H]1CCCN1C(=O)[C@@H](NC(=O)[C@H](CC(C)C)NC(=O)[C@H](CO)NC(=O)[C@H](Cc1ccccc1)NC(=O)[C@H](CC(C)C)NC(=O)[C@@H](N)Cc1ccccc1)[C@@H](C)CC)C(C)C)[C@@H](C)CC)C(C)C)C(=O)N[C@@H](CCCN=C(N)N)C(=O)N[C@@H](CC(N)=O)C(N)=O [FLFSLIPSVIAGLVSAIRN]

MIC [11]: 8.53 µM (≈ 12 µg/mL)
MIC [12]: 25.6 µM (≈ 36 µg/mL)
MIC [6]: 4.98 µM (≈ 7 µg/mL)
MIC [13]: 15.6 µM (≈ 22 µg/mL)
Structure (SMILES): CC(C)C[C@H](NC(=O)[C@H](CC(C)C)NC(=O)[C@H](CCCCN)NC(=O)[C@H](CO)NC(=O)[C@@H](NC(=O)[C@H](C)NC(=O)[C@H](CCCCN)NC(=O)[C@H](Cc1ccccc1)NC(=O)[C@H](CC(C)C)NC(=O)[C@H](C)NC(=O)CNC(=O)[C@H](CC(C)C)NC(=O)[C@@H](N)Cc1ccccc1)C(C)C)C(=O)O [FLGALFKAVSKLL]

MIC [4]: ≥ 1000 µM
Structure (SMILES): NCCCC[C@H](NC(=O)[C@H](CCC(=O)O)NC(=O)[C@H](CC(=O)O)NC(=O)[C@H](CCC(=O)O)NC(=O)[C@H](CC(=O)O)NC(=O)[C@H](CCC(=O)O)NC(=O)[C@H](CC(=O)O)NC(=O)[C@H](CCC(N)=O)NC(=O)[C@H](CCCN=C(N)N)NC(=O)[C@@H](N)CO)C(=O)N[C@@H](CCCN=C(N)N)C(=O)N[C@@H](CCCN=C(N)N)C(=O)N1CCC[C@H]1C(=O)N[C@@H](CCCN=C(N)N)C(=O)O [SRQDEDEDEKRRPR]

MIC [7]: ≥ 32 µM
MIC [8]: ≥ 32 µM
MIC [9]: ≥ 64 µM
Structure (SMILES): CC[C@H](C)[C@H](NC(=O)CNC(=O)[C@H](CO)NC(=O)[C@H](CC(C)C)NC(=O)[C@H](CC(C)C)NC(=O)CN)C(=O)N[C@@H](CC(C)C)C(=O)NCC(=O)N[C@@H](C)C(=O)NCC(=O)N[C@@H](CCCCN)C(=O)N[C@@H](CCCCN)C(=O)N[C@H](C(=O)N[C@H](C(=O)O)C(C)C)[C@@H](C)CC [GLLSGILGAGKKIV]

MIC [14]: 6.76 µM (≈ 16 µg/mL)
Structure (SMILES): NC(=O)[C@H](Cc1ccccc1)NC(=O)[C@H](Cc1c[nH]c2ccccc12)NC(=O)[C@H](CCCN=C(N)N)NC(=O)[C@H](Cc1c[nH]c2ccccc12)NC(=O)[C@H](CCCN=C(N)N)NC(=O)[C@H](Cc1c[nH]c2ccccc12)NC(=O)[C@H](CCCN=C(N)N)NC(=O)[C@H](Cc1ccccc1)NC(=O)[C@H](Cc1c[nH]c2ccccc12)NC(=O)[C@H](CCCN=C(N)N)NC(=O)[C@H](Cc1c[nH]c2ccccc12)NC(=O)[C@H](CCCN=C(N)N)NC(=O)[C@H](Cc1c[nH]c2ccccc12)NC(=O)[C@@H](N)CCCN=C(N)N [RWRWRWFRWRWRWF]

MIC [1]: 8.7 µM (≈ 18.8 µg/mL)
MIC [15]: 4.3 µM (≈ 9.3 µg/mL)
MIC [2]: 69.4 µM (≈ 150 µg/mL)
MIC [16]: 8.7 µM (≈ 18.8 µg/mL)
Structure (SMILES): CC(C)C[C@H](NC(=O)[C@H](C)N)C(=O)N[C@@H](Cc1ccc(O)cc1)C(=O)N[C@@H](CCCCN)C(=O)N[C@@H](CCCCN)C(=O)N[C@@H](Cc1ccccc1)C(=O)N[C@@H](CCCCN)C(=O)N[C@@H](CCCCN)C(=O)N[C@@H](CCCCN)C(=O)N[C@@H](CC(C)C)C(=O)N[C@@H](CC(C)C)C(=O)N[C@@H](CCCCN)C(=O)N[C@@H](CO)C(=O)N[C@@H](CC(C)C)C(=O)N[C@@H](CCCCN)C(=O)N[C@@H](CCCN=C(N)N)C(=O)N[C@@H](CC(C)C)C(=O)NCC(=O)O [ALYKKFKKKLLKSLKRLG]

MIC [17]: ≥ 44.4 µM
MIC [12]: ≥ 44.4 µM
MIC [18]: > 44.4 µM
Structure (SMILES): CC[C@H](C)[C@@H]1NC(=O)[C@H](CCCCN)NC(=O)[C@@H](NC(=O)[C@@H](NC(=O)[C@@H](NC(=O)[C@@H](NC(=O)[C@@H]2CCCN2C(=O)[C@H](CC(C)C)NC(=O)[C@H](Cc2ccccc2)NC(=O)[C@H](CC(N)=O)NC(=O)[C@H](C)NC(=O)[C@H](C)NC(=O)[C@H](CC(C)C)NC(=O)CNC(=O)[C@H](C)NC(=O)[C@H](CC(C)C)NC(=O)[C@@H](N)CC(C)C)[C@@H](C)O)[C@@H](C)CC)[C@@H](C)CC)CSSC[C@@H](C(=O)O)NC(=O)[C@H](CCCCN)NC(=O)[C@H](Cc2ccc(O)cc2)NC(=O)[C@H](CO)NC1=O [LLAGLAANFLPTIICKISYKC]

MIC [14]: 11.5 µM (≈ 32 µg/mL)
Structure (SMILES): NC(=O)[C@H](Cc1ccccc1)NC(=O)[C@H](Cc1c[nH]c2ccccc12)NC(=O)[C@H](CCCN=C(N)N)NC(=O)[C@H](Cc1c[nH]c2ccccc12)NC(=O)[C@H](CCCN=C(N)N)NC(=O)[C@H](Cc1c[nH]c2ccccc12)NC(=O)[C@H](CCCN=C(N)N)NC(=O)[C@@H]1CCCN1C(=O)[C@H](CO)NC(=O)CNC(=O)[C@H](CO)NC(=O)[C@@H]1CCCN1C(=O)[C@H](Cc1ccccc1)NC(=O)[C@H](Cc1c[nH]c2ccccc12)NC(=O)[C@H](CCCN=C(N)N)NC(=O)[C@H](Cc1c[nH]c2ccccc12)NC(=O)[C@H](CCCN=C(N)N)NC(=O)[C@H](Cc1c[nH]c2ccccc12)NC(=O)[C@@H](N)CCCN=C(N)N [RWRWRWFPSGSPRWRWRWF]

MIC [14]: 4.64 µM (≈ 8 µg/mL)
Structure (SMILES): CC(C)C[C@H](NC(=O)[C@H](CC(C)C)NC(=O)[C@H](CCCCN)NC(=O)[C@H](CCCCN)NC(=O)[C@H](CC(C)C)NC(=O)[C@H](CCCCN)NC(=O)[C@H](CCCCN)NC(=O)[C@H](CC(C)C)NC(=O)[C@H](CC(C)C)NC(=O)[C@H](CCCCN)NC(=O)[C@H](CCCCN)NC(=O)[C@H](CC(C)C)NC(=O)[C@@H](N)CCCCN)C(=O)N[C@@H](CCCCN)C(=O)O [KLKKLLKKLKKLLK]
